The target of one test is T1, full-length human RORγt (Homo sapiens, UniProt P51449).
T1 construct: expressed in transfected cells; host or cells: HEK293T, transiently transfected with pCMV-BD-ROR
T1 sequence (P51449 1-497 isoform P51449-2): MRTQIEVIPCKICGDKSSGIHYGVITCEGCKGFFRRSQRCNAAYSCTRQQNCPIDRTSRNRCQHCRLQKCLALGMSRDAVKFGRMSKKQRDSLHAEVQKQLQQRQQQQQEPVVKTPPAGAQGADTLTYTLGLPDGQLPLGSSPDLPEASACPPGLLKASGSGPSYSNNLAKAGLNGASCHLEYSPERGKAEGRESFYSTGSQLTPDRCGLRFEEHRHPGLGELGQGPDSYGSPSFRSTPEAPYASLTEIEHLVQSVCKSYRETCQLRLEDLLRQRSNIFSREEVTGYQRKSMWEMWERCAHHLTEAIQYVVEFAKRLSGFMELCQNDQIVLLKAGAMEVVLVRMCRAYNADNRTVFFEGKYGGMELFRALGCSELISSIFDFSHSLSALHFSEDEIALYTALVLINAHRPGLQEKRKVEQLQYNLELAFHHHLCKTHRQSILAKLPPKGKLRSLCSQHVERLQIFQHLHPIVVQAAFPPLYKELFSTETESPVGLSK
Description: RORγt (full-length human) Reporter Assay, Conditions A. It counts as cell-based. Conditions: for IC50: HEK293T cells, GAL4-DBD-RORγt, luciferase, read-out: RORγt (FL) Reporter Assay A, IC50; for inhibition at 6 µM: read-out: RORγt (FL) Reporter Assay A, % inhibition @ 6 μM, 6 μM compound; for inhibition at 2 µM: read-out: RORγt (FL) Reporter Assay A, % inhibition (* at 2 μM), 2 μM compound concentration (footnote *). Here is the method: After overnight (16 to 20 hours) incubation, media were removed and cells were lysed with 20 μL 1× Passive Lysis Buffer (Promega) for 10-15 minutes. Luminescence was measured using a BMG LUMIstar OPTIMA plate reader, after addition of 75 μL/well firefly luciferase buffer, followed by 75 μL/well Renilla luciferase buffer. To calculate the effect of compounds on RORγt activity, firefly values were normalized against values of DMSO only and values of reference compound at saturating concentration, then further normalized against Renilla signals. IC50s were generated by plotting final Renilla normalized data against compound concentration and percent inhibition was calculated against DMSO control.
Background: Reporter assays use an easily measured gene product as a stand-in for the process of interest.

Test [1] has as its target T2, human RORγt ligand binding domain (RORγt LBD) (Homo sapiens, UniProt P51449).
T2 construct: His-tag (N); TurboTEV protease cleavage site (ENLYFQG) (N); made in house; host or cells: E. coli (pHIS1, a modified pET expression vector)
T2 sequence (P51449 with tags, fused parts or gaps): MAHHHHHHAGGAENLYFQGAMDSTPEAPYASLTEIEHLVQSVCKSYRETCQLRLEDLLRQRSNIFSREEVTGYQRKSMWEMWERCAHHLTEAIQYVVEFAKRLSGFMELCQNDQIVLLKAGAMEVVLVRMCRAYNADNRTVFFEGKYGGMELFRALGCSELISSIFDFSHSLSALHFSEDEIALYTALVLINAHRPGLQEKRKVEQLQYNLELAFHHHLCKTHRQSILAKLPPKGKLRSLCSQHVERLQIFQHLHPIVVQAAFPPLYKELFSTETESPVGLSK
Nature of the test: RORγt ThermoFluor assay. Conditions: estimated from thermal shift concentration response. Here is the method:
This approach is applicable to a wide variety of systems, and rigorous in theoretical interpretation through quantitation of equilibrium binding constants (KD).
The shift in the melting point described as a ΔTm is proportional to the concentration and affinity of the ligand.
Protein and compound solutions are dispensed into black 384-well polypropylene PCR microplates (Abgene) and overlayed with silicone oil (1 μL, Fluka, type DC 200) to prevent evaporation.
Bar-coded assay plates are robotically loaded onto a thermostatically controlled PCR-type thermal block and then heated at a typical ramp-rate of 1° C./min for all experiments.
Fluorescence was measured by continuous illumination with UV light (Hamamatsu LC6) supplied via fiber optic and filtered through a band-pass filter (380-400 nm; >6 OD cutoff). Fluorescence emission of the entire 384-well plate was detected by measuring light intensity using a CCD camera (Sensys, Roper Scientific) filtered to detect 500±25 nm, resulting in simultaneous and independent readings of all 384 wells. Images were collected at each temperature, and the sum of the pixel intensity in a given area of the assay plate was recorded versus temperature. Reference wells contained RORγt without compounds, and the assay conditions were as follows: • 0.065 mg/mL RORγt • 60 μM 1,8-ANS • 100 mM Hepes, pH 7.0 • 10 mM NaCl • 2.5 mM GSH • 0.002% Tween-20
Project compounds were arranged in a pre-dosed mother plate (Greiner Bio-one) wherein compounds are serially diluted in 100% DMSO by 1:2 from a high concentration of 10 mM over 12 columns within a series (column 12 is a reference well containing DMSO, no compound). The compounds were robotically dispensed directly into assay plates (1×=46 nL) using a Hummingbird capillary liquid handling instrument (Digilab). Following compound dispense, protein and dye in buffer was added to achieve the final assay volume of 3 μL, followed by 1 μL of silicone oil.

A word on the IC50: it is the concentration at which inhibition is half-maximal. As a reminder, the inhibition is the relative decrease from the control value, in per cent. As usually defined, the Kd is a measure of binding affinity in units of concentration.

`C[C@H](NS(=O)(=O)c1ccc(-c2sc(-c3nnc(C(C)(C)O)o3)nc2C(=O)N2CC(F)(F)C[C@@H]2C)c(C(F)F)c1F)C(F)(F)F` [Example 6/4, 4-(4-((S)-4,4-Difluoro-2-methylpyrrolidine-1-carbonyl)-2-(5-(2-hydroxypropan-2-yl)-1,3,4-oxadiazol-2-yl)thiazol-5-yl)-3-(difluoromethyl)-2-fluoro-N—((S)-1,1,1-trifluoropropan-2-yl)benzenesulfonamide]: at full-length human RORγt, the IC50 stood at 82 nM and the inhibition at 6 µM was 108%. The Kd in test [1] was 6.8 nM.

For the compound `CC[C@H](NS(=O)(=O)c1ccc(-c2sc(-c3noc(CC(C)(C)C(=O)O)n3)nc2C(=O)N2CCC(F)(F)CC2)c(C(F)F)c1Cl)C(F)(F)F` [Example 10/1, (S)-3-(3-(5-(3-Chloro-2-(difluoromethyl)-4-(N-(1,1,1-trifluorobutan-2-yl)sulfamoyl)phenyl)-4-(4,4-difluoropiperidine-1-carbonyl)thiazol-2-yl)-1,2,4-oxadiazol-5-yl)-2,2-dimethylpropanoic acid], at full-length human RORγt, the half-inhibitory concentration (IC50) was found to be 66 nM and the inhibition at 6 µM was 104%. The Kd in test [1] was 0.0014 nM.

For the compound `C[C@H](NS(=O)(=O)c1ccc(-c2sc(-c3nnc(CC(C)(C)O)o3)nc2C(=O)N2CC(F)(F)C[C@@H]2C)c(Cl)c1Cl)C(F)(F)F` [Example 3/2, 2,3-Dichloro-4-(4-((S)-4,4-difluoro-2-methylpyrrolidine-1-carbonyl)-2-(5-(2-hydroxy-2-methylpropyl)-1,3,4-oxadiazol-2-yl)thiazol-5-yl)-N—((S)-1,1,1-trifluoropropan-2-yl)benzenesulfonamide], at full-length human RORγt, the IC50 came out at 23 nM and the inhibition at 6 µM is 107%. In addition, in test [1], the Kd is 0.59 nM.

For the compound `C[C@H](NS(=O)(=O)c1ccc(-c2sc(-c3nnc(CC(C)(C)O)o3)nc2C(=O)N2CCC(F)(F)CC2)c(OC(F)F)c1F)C(F)(F)F` [Example 3/7, (S)-3-(Difluoromethoxy)-4-(4-(4,4-difluoropiperidine-1-carbonyl)-2-(5-(2-hydroxy-2-methylpropyl)-1,3,4-oxadiazol-2-yl)thiazol-5-yl)-2-fluoro-N-(1,1,1-trifluoropropan-2-yl)benzenesulfonamide], on full-length human RORγt, the half-inhibitory concentration (IC50) is 290 nM and the inhibition at 6 µM came out at 103%. In test [1], the Kd is 81 nM.

As for `C[C@H](NS(=O)(=O)c1ccc(-c2sc(-c3nnc(C(C)(C)O)o3)nc2C(=O)N2CCC(F)(F)CC2)c(F)c1C(F)(F)F)C(F)(F)F` [Example 25, 4-(4-(4,4-Difluoropiperidine-1-carbonyl)-2-(5-(2-hydroxypropan-2-yl)-1,3,4-oxadiazol-2-yl)thiazol-5-yl)-3-fluoro-2-(trifluoromethyl)-N—((S)-1,1,1-trifluoropropan-2-yl)benzenesulfonamide], at full-length human RORγt, the 50% inhibitory concentration (IC50) worked out at 93 nM and the inhibition at 6 µM amounted to 98%. For the same compound, the Kd in test [1] was 10 nM.

For the compound `CN(CC(F)(F)F)S(=O)(=O)c1ccc(-c2sc(-c3nnc(C(C)(C)O)o3)nc2C(=O)N2CCC(F)(F)CC2)c(Cl)c1F` [Example 6/23, 3-Chloro-4-(4-(4,4-difluoropiperidine-1-carbonyl)-2-(5-(2-hydroxypropan-2-yl)-1,3,4-oxadiazol-2-yl)thiazol-5-yl)-2-fluoro-N-methyl-N-(2,2,2-trifluoroethyl)benzenesulfonamide], on full-length human RORγt, the IC50 was 2300 nM and the inhibition at 6 µM is 40%. For the same compound, the Kd in test [1] is 6000 nM.

Consider `CC[C@H](NS(=O)(=O)c1ccc(-c2sc(-c3nnc(C(C)(C)O)o3)nc2C(=O)N2CCC(F)CC2)c(Cl)c1)C(F)(F)F` [Example 6/11, (S)-3-Chloro-4-(4-(4-fluoropiperidine-1-carbonyl)-2-(5-(2-hydroxypropan-2-yl)-1,3,4-oxadiazol-2-yl)thiazol-5-yl)-N-(1,1,1-trifluorobutan-2-yl)benzenesulfonamide], for which, at full-length human RORγt, the IC50 is 69 nM and the inhibition at 6 µM was 104%. Besides, in test [1], the dissociation constant (Kd) was 9.3 nM.

With `CC1CCN(C(=O)c2nc(-c3nnc(C(N)=O)o3)sc2-c2ccc(S(=O)(=O)N[C@@H](C)C(F)(F)F)c3ccccc23)CC1` [Example 5, (S)-5-(4-(4-Methylpiperidine-1-carbonyl)-5-(4-(N-(1,1,1-trifluoropropan-2-yl)sulfamoyl)naphthalen-1-yl)thiazol-2-yl)-1,3,4-oxadiazole-2-carboxamide], on full-length human RORγt, the IC50 is 170 nM and the inhibition at 6 µM was 106%. The Kd in test [1] was 37 nM.

For `CC1(NS(=O)(=O)c2ccc(-c3sc(-c4nnc(C(C)(C)O)o4)nc3C(=O)N3CCC(F)(F)CC3)c(Cl)c2Cl)CC1` [Example 21, 2,3-Dichloro-4-(4-(4,4-difluoropiperidine-1-carbonyl)-2-(5-(2-hydroxypropan-2-yl)-1,3,4-oxadiazol-2-yl)thiazol-5-yl)-N-(1-methylcyclopropyl)benzenesulfonamide], at full-length human RORγt, the IC50 came to 67 nM and the inhibition at 6 µM was found to be 107%. Moreover, in test [1], the dissociation constant Kd was 4.7 nM.

Take `CCN(CC)C(=O)c1nc(-c2nncn2CC(C)(C)O)sc1-c1ccc(C(O)(C(F)(F)F)C(F)(F)F)c(Cl)c1Cl` [Example 9/1, 5-(2,3-Dichloro-4-(1,1,1,3,3,3-hexafluoro-2-hydroxypropan-2-yl)phenyl)-N,N-diethyl-2-(4-(2-hydroxy-2-methylpropyl)-4H-1,2,4-triazol-3-yl)thiazole-4-carboxamide]: on full-length human RORγt, the IC50 was 67 nM and the inhibition at 2 µM turned out to be 99%. In test [1], the Kd was 27 nM.

For the compound `CCN(CC)C(=O)c1nc(-c2cccc(C(C)(C)O)n2)sc1-c1ccc(S(=O)(=O)N[C@@H](C)C(F)(F)F)c(Cl)c1Cl` [Example 17, (S)-5-(2,3-Dichloro-4-(N-(1,1,1-trifluoropropan-2-yl)sulfamoyl)phenyl)-N,N-diethyl-2-(6-(2-hydroxypropan-2-yl)pyridin-2-yl)thiazole-4-carboxamide], on full-length human RORγt, the IC50 turned out to be 14 nM and the inhibition at 2 µM was found to be 104%. Moreover, the equilibrium dissociation constant (Kd) in test [1] was 7.1 nM.

Regarding `CC[C@H](NS(=O)(=O)c1ccc(-c2sc(-c3nnc(C(C)(C)O)o3)nc2C(=O)N2CCC(F)(F)CC2)c(F)c1C(F)F)C(F)(F)F` [Example 6/16, (S)-2-(Difluoromethyl)-4-(4-(4,4-difluoropiperidine-1-carbonyl)-2-(5-(2-hydroxypropan-2-yl)-1,3,4-oxadiazol-2-yl)thiazol-5-yl)-3-fluoro-N-(1,1,1-trifluorobutan-2-yl)benzenesulfonamide], at full-length human RORγt, the IC50 came out at 38 nM and the inhibition at 6 µM was found to be 104%. The Kd in test [1] was 0.47 nM.
